Data on 31 compounds can be found in patent publication US8232401B2 (Japan Tobacco Inc., priority 2002, dated 2012).

This experiment concerns the target T1, HIV integrase (Human immunodeficiency virus type 1 group M subtype B, UniProt P12497, F1332H).
T1 construct: HIV integrase full length gene; made in house; host or cells: Escherichia coli BL21(DE3)
Put plainly: Determination of enzyme (HIV integrase) inhibitory activity (strand transfer, microtiter plate, absorbance at 450 nm). Type of experiment: biochemical, HIV (Human Immunodeficiency Virus (type 1)). To be noted: recombinant HIV integrase (F185H) expressed in E. coli; donor DNA on streptavidin plate, digoxigenin target DNA; 37° C. The procedure: The following explains evaluation methods of the HIV integrase inhibitory activity of the compound of the present invention.
(i) Construction of Recombinant Integrase Gene Expression System
(ii) Production and Purification of Integrase Protein
Escherichia coli recombinant BL21(DE3) transformed with plasmid pET21a-IN-F185H obtained in (i) was shake cultured at 30° C. in a liquid medium containing ampicillin. When the culture reached the logarithmic growth phase, isopropyl-β-D-thiogalactopyranoside was added to promote expression of integrase gene. The culture was continued for 3 hrs to promote accumulation of the integrase protein. The recombinant E. coli was collected in pellets by centrifugal separation and preserved at −80° C.
The E. coli was suspended in Lysis buffer (20 mM HEPES (pH 7.5), 5 mM DTT, 10 mM CHAPS, 10% glycerol) containing 1M sodium chloride and subjected to repeat pressurization and depressurization for rupture, and centrifugal separation at 4° C., 40,000×g, 60 min to recover a water-soluble fraction (supernatant). This was diluted 10-fold with Lysis buffer free of sodium chloride, mixed with SP-Sepharose (Pharmacia Corporation) and stirred at 4° C. for 60 min to allow adsorption of integrase protein to the resin. The resin was washed with Lysis buffer containing 100 mM sodium chloride and the integrase protein was eluted with Lysis buffer containing 1M sodium chloride.
The eluted integrase protein solution was applied to a Superdex 75 (Pharmacia Corporation) column for gel filtration. The protein was eluted with Lysis buffer containing 1M sodium chloride.
The obtained fractions of the integrate protein were collected and preserved at −80° C.
(iii) Preparation of DNA Solution
The following DNA synthesized by Greiner was dissolved in TE buffer (10 mM Tris-hydrochloric acid (pH 8.0), 1 mM EDTA) and mixed with donor DNA, target DNA, each complementary strand (+ and − strands) to 1 μM. The mixture was heated at 95° C. for 5 min, 80° C. for 10 min, 70° C. for 10 min, 60° C. for 10 min, 50° C. for 10 min and 40° C. for 10 min and preserved at 25° C. to give a double stranded DNA, which was used for the test. Donor DNA (− strand having biotin attached to the 5′ terminal)
(iv) Determination of Enzyme (HIV Integrase) Inhibitory activity
The donor DNA was diluted with TE buffer to 10 nM, of which 50 μl was added to each well of streptavidin-coated microtiter plate (Roche) and allowed to adsorb at 37° C. for 60 min. The DNA was washed with phosphate buffer (Dulbecco PBS, Sanko Junyaku Co., Ltd.) containing 0.1% Tween 20 and phosphate buffer. Then, a reaction mixture (70 μl) having the following composition, a test substance (10 μl) diluted with the reaction mixture and […] integrase protein (10 μl) were added to each well and reacted at 37° C. for 60 min.
Then, 50 nM target DNA (1.0 μl) was added, reacted at 37° C. for 10 min and washed with phosphate buffer containing 0.1% Tween 20 to stop the reaction.
Then, 100 mU/ml peroxidase labeled anti-digoxigenin antibody solution (Roche, 100 μl) was added, and the mixture was reacted at 37° C. for 60 min, followed by washing with phosphate buffer containing 0.1% Tween 20.
A peroxidase color solution (Bio Rad, 100 μl) was added and allowed to react at room temperature for 4 min. The color reaction was stopped by adding 1N sulfuric acid (100 μl). The absorbance at 450 nm was measured.
The HIV integrase inhibitory activity (IC50) of the compound of the present invention was calculated from the inhibition rate according to the following formula. […] Evaluation of Antiviral Activity
On to `CC(=O)NCCn1cc(C(=O)O)c(=O)c2cc(Cc3cccc(Cl)c3Cl)ccc21` [Example 1-48, 1-(2-Acetylaminoethyl)-6-(2,3-dichlorobenzyl)-4-oxo-1,4-dihydroquinoline-3-carboxylic acid], for which the concentration for half-maximal inhibition (IC50) amounted to 380 nM.
Consider `CCOC(=O)NCCn1cc(C(=O)O)c(=O)c2cc(Cc3cccc(Cl)c3Cl)ccc21` [Example 1-49, 6-(2,3-Dichlorobenzyl)-1-(2-ethoxycarbonylaminoethyl)-4-oxo-1,4-dihydroquinoline-3-carboxylic acid], for which the IC50 amounted to 53 nM.
With `O=C(O)c1cn(CCO)c2ccc(Cc3cccc(F)c3F)cc2c1=O` [Example 1-50, 6-(2,3-Difluorobenzyl)-1-(2-hydroxyethyl)-4-oxo-1,4-dihydroquinoline-3-carboxylic acid], the IC50 was 110 nM.
With `O=C(O)c1cn(CCO)c2ccc(Cc3ccc(F)cc3Cl)cc2c1=O` [Example 1-51, 6-(2-Chloro-4-fluorobenzyl)-1-(2-hydroxyethyl)-4-oxo-1,4-dihydroquinoline-3-carboxylic acid], the 50% inhibitory concentration (IC50) amounted to 180 nM.
As for `O=C(O)c1cn(CCO)c2ccc(Cc3cccc(Cl)c3Cl)cc2c1=O` [Example 1-63], the IC50 was determined as 20 nM.
Regarding `O=C(O)c1cn(CCO)c2ccc(Cc3c(F)cccc3Cl)cc2c1=O` [Example 1-64], the IC50 came out at 56 nM.
For the compound `O=C(O)c1cn(CCc2ccccc2)c2ccc(Cc3ccccc3Cl)cc2c1=O` [Example 1-65, 6-(2-Chlorobenzyl)-4-oxo-1-phenethyl-1,4-dihydroquinoline-3-carboxylic acid], the IC50 was 120 nM.
For the compound `O=C(O)c1cn(CCO)c2ccc(Cc3cccc(F)c3Cl)cc2c1=O` [Example 1-66, 6-(2-Chloro-3-fluorobenzyl)-1-(2-hydroxyethyl)-4-oxo-1,4-dihydroquinoline-3-carboxylic acid], the half-maximal inhibitory concentration (IC50) came to 49 nM.
In the case of `O=C(O)c1cn(CCO)c2ccc(Cc3cccc([N+](=O)[O-])c3)cc2c1=O` [Example 1-67], the IC50 is 790 nM.
The value for `CSCn1cc(C(=O)O)c(=O)c2cc(Cc3cccc(Cl)c3Cl)ccc21` [Example 1-68, 6-(2,3-Dichlorobenzyl)-1-methylsulfanylmethyl-4-oxo-1,4-dihydroquinoline-3-carboxylic acid] was 49 nM; that for `CS(=O)(=O)Cn1cc(C(=O)O)c(=O)c2cc(Cc3cccc(Cl)c3Cl)ccc21` [Example 1-69, 6-(2,3-Dichlorobenzyl)-1-methanesulfonylmethyl-4-oxo-1,4-dihydroquinoline-3-carboxylic acid] was 74 nM.
Regarding `CC(C)(C)NS(=O)(=O)Cn1cc(C(=O)O)c(=O)c2cc(Cc3cccc(Cl)c3Cl)ccc21` [Example 1-70, 1-tert-Butylsulfamoylmethyl-6-(2,3-dichlorobenzyl)-4-oxo-1,4-dihydroquinoline-3-carboxylic acid], the IC50 was determined as 82 nM.
As for `CNS(=O)(=O)Cn1cc(C(=O)O)c(=O)c2cc(Cc3cccc(Cl)c3Cl)ccc21` [Example 1-71, 6-(2,3-Dichlorobenzyl)-1-methylsulfamoylmethyl-4-oxo-1,4-dihydroquinoline-3-carboxylic acid], the figure is 13 nM.
On to `CN(C)S(=O)(=O)Cn1cc(C(=O)O)c(=O)c2cc(Cc3cccc(Cl)c3Cl)ccc21` [Example 1-72, 6-(2,3-Dichlorobenzyl)-1-dimethylsulfamoylmethyl-4-oxo-1,4-dihydroquinoline-3-carboxylic acid], for which the IC50 worked out at 25 nM.
In the case of `O=C(O)c1cn(CCO)c2ccc(Cc3c(F)ccc(F)c3Cl)cc2c1=O` [Example 1-73, 6-(2-Chloro-3,6-difluorobenzyl)-1-(2-hydroxyethyl)-4-oxo-1,4-dihydroquinoline-3-carboxylic acid], the IC50 stood at 31 nM.
`O=C(O)c1cn(CC(O)CO)c2ccc(Cc3cccc(Cl)c3Cl)cc2c1=O` (stereo not shown) [Example 1-74, 6-(2,3-Dichlorobenzyl)-1-(2,3-Dihydroxypropyl)-4-oxo-1,4-dihydroquinoline-3-carboxylic acid]: the concentration for half-maximal inhibition (IC50) amounted to 98 nM.
As for `NS(=O)(=O)Cn1cc(C(=O)O)c(=O)c2cc(Cc3c(F)cccc3Cl)ccc21` [Example 1-75, 6-(2-Chloro-6-fluorobenzyl)-1-sulfamoylmethyl-4-oxo-1,4-dihydroquinoline-3-carboxylic acid], the figure is 16 nM; as for `CNS(=O)(=O)Cn1cc(C(=O)O)c(=O)c2cc(Cc3c(F)cccc3Cl)ccc21` [Example 1-76, 6-(2-Chloro-6-fluorobenzyl)-1-methylsulfamoylmethyl-4-oxo-1,4-dihydroquinoline-3-carboxylic acid], 28 nM.
As to `CN(C)S(=O)(=O)Cn1cc(C(=O)O)c(=O)c2cc(Cc3c(F)cccc3Cl)ccc21` [Example 1-77, 6-(2-Chloro-6-fluorobenzyl)-1-dimethylsulfamoylmethyl-4-oxo-1,4-dihydroquinoline-3-carboxylic acid], the 50% inhibitory concentration (IC50) came out at 63 nM.
The value for `O=C(O)c1cn(CCO)c2ccc(Cc3ccccc3)cc2c1=O` [Example 1-78] was 590 nM; that for `Cc1cccc(Cc2ccc3c(c2)c(=O)c(C(=O)O)cn3CCO)c1Cl` [Example 1-79, 6-(2-Chloro-3-methylbenzyl)-1-(2-hydroxyethyl)-4-oxo-1,4-dihydroquinoline-3-carboxylic acid] was 77 nM.
The value for `O=C(O)c1cn(CCO)c2ccc(Cc3ccccc3Br)cc2c1=O` [Example 1-80, 6-(2-Bromobenzyl)-1-(2-hydroxyethyl)-4-oxo-1,4-dihydroquinoline-3-carboxylic acid] was 350 nM; that for `O=C(O)c1cn(CCO)c2ccc(Cc3ccccc3-c3ccccc3)cc2c1=O` [Example 1-86, 6-Biphenyl-2-ylmethyl-1-(2-hydroxyethyl)-4-oxo-1,4-dihydroquinoline-3-carboxylic acid] was 150 nM; that for `O=C(O)c1cn(CCO)c2ccc(Cc3ccccc3Cl)cc2c1=O` [Example 1-87, 6-(2-Chlorobenzyl)-1-(2-hydroxyethyl)-4-oxo-1,4-dihydroquinoline-3-carboxylic acid] was 140 nM.
Take `O=C(O)c1cn(CCO)c2ccc(Cc3cccc(-c4ccccc4)c3)cc2c1=O` [Example 1-88]: the IC50 is 450 nM.
As for `CSc1ccc(Cl)c(Cc2ccc3c(c2)c(=O)c(C(=O)O)cn3CCO)c1` [Example 1-92, 6-(2-Chloro-5-methylsulfanylbenzyl)-1-(2-hydroxyethyl)-4-oxo-1,4-dihydroquinoline-3-carboxylic acid], the figure is 280 nM; as for `O=C(O)c1cn(CCO)c2ccc(Cc3ccccc3OC(F)(F)F)cc2c1=O` [Example 1-93, 1-(2-Hydroxyethyl)-4-oxo-6-(2-trifluoromethyloxybenzyl)-1,4-dihydroquinoline-3-carboxylic acid], 370 nM.
With `O=C(O)c1cn(CCO)c2ccc(Cc3cccc(Br)c3)cc2c1=O` [Example 1-96], the IC50 worked out at 230 nM.
As for `Cc1ccc(Cl)c(Cc2ccc3c(c2)c(=O)c(C(=O)O)cn3CCO)c1` [Example 1-97, 6-(2-Chloro-5-methylbenzyl)-1-(2-hydroxyethyl)-4-oxo-1,4-dihydroquinoline-3-carboxylic acid], the figure is 130 nM; as for `Nn1cc(C(=O)O)c(=O)c2cc(Cc3cccc(Cl)c3Cl)ccc21` [Example 2-1, 1-Amino-6-(2,3-dichlorobenzyl)-4-oxo-1,4-dihydroquinoline-3-carboxylic acid], 170 nM.
As for `COC(=O)Nn1cc(C(=O)O)c(=O)c2cc(Cc3cccc(Cl)c3Cl)ccc21` [Example 2-2, 6-(2,3-Dichlorobenzyl)-1-methoxycarbonylamino-4-oxo-1,4-dihydroquinoline-3-carboxylic acid], the figure is 180 nM.
